The values below come from ChEMBL document CHEMBL4507263, “Data for DCP probe BAY-474” (2021).

Active and inactive are the calls of the source. No cut-off for these calls is given here.

Series [1] concerns the target Hepatocyte growth factor receptor (Homo sapiens, UniProt P08581). Put plainly: Cellular mechanistic assay using […] cells and p-MET. Format: cell-based, MKN-45.
The test system of a further series is Hs746T. Put plainly: Cell proliferation with Hs746T cells. Format: functional. The settings on record: Homo sapiens.
Series [2] addresses CDK7/Cyclin H/MNAT1 (Homo sapiens) (UniProt P51946+P50613+P51948). Put plainly: CDK7/cyclinH/MAT1 (h) Millipore kinase activity assay. To be noted: Compound concentration 1.0 uM. It counts as protein-complex assay.
The target in series [3] is Casein kinase I isoform gamma-2 (Homo sapiens) (UniProt P78368). Put plainly: CK1gamma2 (h) Millipore kinase activity assay. To be noted: Compound concentration 1.0 uM.
The target of series [4] is Eukaryotic elongation factor 2 kinase (Homo sapiens) (UniProt O00418). Nature of the series: eEF-2K (h) Millipore kinase activity assay. To be noted: Compound concentration 1.0 uM.
The target in series [5] is Ephrin type-A receptor 1 (Homo sapiens) (UniProt P21709). Put plainly: EphA1 (h) Millipore kinase activity assay. The settings on record: Compound concentration 1.0 uM.
Series [6] addresses Vascular endothelial growth factor receptor 1 (Homo sapiens) (UniProt P17948). Put plainly: Flt1 (h) Millipore kinase activity assay. The settings on record: Compound concentration 1.0 uM.
The target of series [7] is Serine/threonine-protein kinase PAK 5 (Homo sapiens) (UniProt Q9P286). Nature of the series: PAK5 (h) Millipore kinase activity assay. To be noted: Compound concentration 1.0 uM.
The target of series [8] is Rho-associated protein kinase 1 (Homo sapiens) (UniProt Q13464). Put plainly: ROCK-I (h) Millipore kinase activity assay. The settings on record: Compound concentration 1.0 uM.
The target of series [9] is Mitogen-activated protein kinase 11 (Homo sapiens) (UniProt Q15759). Put plainly: SAPK2b (h) Millipore kinase activity assay. The settings on record: Compound concentration 1.0 uM.
For series [10], the target named is SRSF protein kinase 1 (Homo sapiens) (UniProt Q96SB4). Nature of the series: SRPK1 (h) Millipore kinase activity assay. To be noted: Compound concentration 1.0 uM.
For series [11], the target named is Testis-specific serine/threonine-protein kinase 2 (Homo sapiens) (UniProt Q96PF2). Put plainly: TSSK2 (h) Millipore kinase activity assay. To be noted: Compound concentration 1.0 uM.
Series [12] deals with L-type calcium channel, benzothiazepine site (Cav1.2 alpha-1C) (Homo sapiens, UniProt Q13936). Nature of the series: Inhibition of Calcium Channel L-Type, Benzothiazepine at 10 µM in the Eurofins-Panlabs radioligand binding assay (Eurofins_assay_214510). Also noted: ligand concentration 2 nM, non-specific ligand with concentration 10 µM Diltiazem, incubation time 3h, incubation temperature 4 °C. To be noted: male, Wistar, rat, rat whole brain preparation, probe [3H] Diltiazem; compound concentration 10 uM; target entry is the homologue from another species.

The target of series [13] is D(3) dopamine receptor (Homo sapiens) (UniProt P35462). To be noted: Compound concentration 10.0 uM.
Series [14] has as its target Kappa-type opioid receptor (Homo sapiens) (UniProt P41145). To be noted: Compound concentration 10.0 uM.
The target in series [15] is Alpha-1A adrenergic receptor (Homo sapiens) (UniProt P35348). The settings on record: Compound concentration 10.0 uM.
Series [16] has as its target Activin receptor type-1B (Homo sapiens) (UniProt P36896). The settings on record: Compound concentration 1000.0 nM.
For series [17], the target named is Tyrosine-protein kinase receptor UFO (Homo sapiens) (UniProt P30530). To be noted: Compound concentration 1000.0 nM.
In series [18] the target is Epithelial discoidin domain-containing receptor 1 (Homo sapiens) (UniProt Q08345). To be noted: Compound concentration 1000.0 nM.
Series [19] has as its target Serine/threonine-protein kinase MRCK gamma (Homo sapiens) (UniProt Q6DT37). The settings on record: Compound concentration 1000.0 nM.
Series [20] deals with Ephrin type-B receptor 3 (Homo sapiens) (UniProt P54753). To be noted: Compound concentration 1000.0 nM.
Series [21] concerns the target Focal adhesion kinase 1 (Homo sapiens) (UniProt Q05397). To be noted: Compound concentration 1000.0 nM.
The target of series [22] is G protein-coupled receptor kinase 4 (Homo sapiens) (UniProt P32298). The settings on record: Compound concentration 1000.0 nM.
Series [23] addresses Homeodomain-interacting protein kinase 4 (Homo sapiens) (UniProt Q8NE63). To be noted: Compound concentration 1000.0 nM.
Series [24] has as its target Hormonally up-regulated neu tumor-associated kinase (Homo sapiens) (UniProt P57058). The settings on record: Compound concentration 1000.0 nM.
In series [25] the target is Mitogen-activated protein kinase 9 (Homo sapiens) (UniProt P45984). The settings on record: Compound concentration 1000.0 nM.
For series [26], the system named is Mast/stem cell growth factor receptor Kit (Homo sapiens), P10721 [L576P]. The settings on record: Compound concentration 1000.0 nM.
The target in series [27] is Serine/threonine-protein kinase STK11 (Homo sapiens) (UniProt Q15831). To be noted: Compound concentration 1000.0 nM.
In series [28] the target is Leukocyte tyrosine kinase receptor (Homo sapiens) (UniProt P29376). To be noted: Compound concentration 1000.0 nM.
Series [29] addresses MAP kinase-activated protein kinase 5 (Homo sapiens) (UniProt Q8IW41). The settings on record: Compound concentration 1000.0 nM.
Series [30] has as its target Mitogen-activated protein kinase kinase kinase 9 (Homo sapiens) (UniProt P80192). To be noted: Compound concentration 1000.0 nM.
In series [31] the target is Macrophage-stimulating protein receptor (Homo sapiens) (UniProt Q04912). The settings on record: Compound concentration 1000.0 nM.
The target in series [32] is Serine/threonine-protein kinase 38 (Homo sapiens) (UniProt Q15208). The settings on record: Compound concentration 1000.0 nM.
Series [33] addresses Serine/threonine-protein kinase OSR1 (Homo sapiens) (UniProt O95747). The settings on record: Compound concentration 1000.0 nM.
Series [34] deals with Mitogen-activated protein kinase 11 (Homo sapiens) (UniProt Q15759). To be noted: Compound concentration 1000.0 nM.
For series [35], the system named is Phosphatidylinositol 4,5-bisphosphate 3-kinase catalytic subunit alpha isoform (Homo sapiens), P42336 [I800L]. To be noted: Compound concentration 1000.0 nM.
Series [36] concerns the target cAMP-dependent protein kinase catalytic subunit beta (Homo sapiens) (UniProt P22694). The settings on record: Compound concentration 1000.0 nM.
Series [37] deals with Serine/threonine-protein kinase N2 (Homo sapiens) (UniProt Q16513). The settings on record: Compound concentration 1000.0 nM.
Series [38] concerns the target Serine/threonine-protein kinase D2 (Homo sapiens) (UniProt Q9BZL6). To be noted: Compound concentration 1000.0 nM.
For series [39], the target named is Receptor-interacting serine/threonine-protein kinase 2 (Homo sapiens) (UniProt O43353). The settings on record: Compound concentration 1000.0 nM.
For series [40], the target named is Ribosomal protein S6 kinase alpha-1 (Homo sapiens) (UniProt Q15418). To be noted: Compound concentration 1000.0 nM.
The target of series [41] is Activated CDC42 kinase 1 (Homo sapiens) (UniProt Q07912). The settings on record: Compound concentration 1000.0 nM.
The target of series [42] is Non-receptor tyrosine-protein kinase TYK2 (Homo sapiens) (UniProt P29597). To be noted: Compound concentration 1000.0 nM.
In series [43] the target is Serine/threonine-protein kinase ULK3 (Homo sapiens) (UniProt Q6PHR2). The settings on record: Compound concentration 1000.0 nM.
For series [44], the target named is Wee1-like protein kinase (Homo sapiens) (UniProt P30291). The settings on record: Compound concentration 1000.0 nM.

Chain of Mitogen-activated protein kinase 11 (Homo sapiens) (Q15759 whole entry, canonical isoform): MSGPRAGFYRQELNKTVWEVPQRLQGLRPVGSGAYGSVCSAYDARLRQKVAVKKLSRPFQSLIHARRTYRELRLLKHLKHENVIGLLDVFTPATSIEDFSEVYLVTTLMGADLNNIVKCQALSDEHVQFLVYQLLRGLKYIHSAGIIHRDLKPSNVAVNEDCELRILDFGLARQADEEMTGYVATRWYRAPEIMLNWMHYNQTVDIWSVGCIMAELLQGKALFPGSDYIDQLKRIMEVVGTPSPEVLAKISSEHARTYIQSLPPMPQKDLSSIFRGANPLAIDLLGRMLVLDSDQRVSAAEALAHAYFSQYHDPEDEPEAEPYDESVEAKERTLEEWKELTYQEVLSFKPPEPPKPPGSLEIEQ
Chain of Serine/threonine-protein kinase STK11 (Homo sapiens) (Q15831 whole entry): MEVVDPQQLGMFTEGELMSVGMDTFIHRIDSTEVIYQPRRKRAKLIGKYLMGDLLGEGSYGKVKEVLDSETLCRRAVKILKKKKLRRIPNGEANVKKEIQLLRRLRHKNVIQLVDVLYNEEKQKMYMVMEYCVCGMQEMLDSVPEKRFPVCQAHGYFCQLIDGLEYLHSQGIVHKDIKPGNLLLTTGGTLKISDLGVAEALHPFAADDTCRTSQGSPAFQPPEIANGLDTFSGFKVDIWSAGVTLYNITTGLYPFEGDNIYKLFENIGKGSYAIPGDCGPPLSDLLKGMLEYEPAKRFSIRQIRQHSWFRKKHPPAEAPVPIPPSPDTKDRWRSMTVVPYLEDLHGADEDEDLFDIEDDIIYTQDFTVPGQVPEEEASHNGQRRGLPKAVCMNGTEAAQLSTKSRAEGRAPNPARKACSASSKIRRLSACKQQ
Chain of Ephrin type-A receptor 1 (Homo sapiens) (P21709 whole entry): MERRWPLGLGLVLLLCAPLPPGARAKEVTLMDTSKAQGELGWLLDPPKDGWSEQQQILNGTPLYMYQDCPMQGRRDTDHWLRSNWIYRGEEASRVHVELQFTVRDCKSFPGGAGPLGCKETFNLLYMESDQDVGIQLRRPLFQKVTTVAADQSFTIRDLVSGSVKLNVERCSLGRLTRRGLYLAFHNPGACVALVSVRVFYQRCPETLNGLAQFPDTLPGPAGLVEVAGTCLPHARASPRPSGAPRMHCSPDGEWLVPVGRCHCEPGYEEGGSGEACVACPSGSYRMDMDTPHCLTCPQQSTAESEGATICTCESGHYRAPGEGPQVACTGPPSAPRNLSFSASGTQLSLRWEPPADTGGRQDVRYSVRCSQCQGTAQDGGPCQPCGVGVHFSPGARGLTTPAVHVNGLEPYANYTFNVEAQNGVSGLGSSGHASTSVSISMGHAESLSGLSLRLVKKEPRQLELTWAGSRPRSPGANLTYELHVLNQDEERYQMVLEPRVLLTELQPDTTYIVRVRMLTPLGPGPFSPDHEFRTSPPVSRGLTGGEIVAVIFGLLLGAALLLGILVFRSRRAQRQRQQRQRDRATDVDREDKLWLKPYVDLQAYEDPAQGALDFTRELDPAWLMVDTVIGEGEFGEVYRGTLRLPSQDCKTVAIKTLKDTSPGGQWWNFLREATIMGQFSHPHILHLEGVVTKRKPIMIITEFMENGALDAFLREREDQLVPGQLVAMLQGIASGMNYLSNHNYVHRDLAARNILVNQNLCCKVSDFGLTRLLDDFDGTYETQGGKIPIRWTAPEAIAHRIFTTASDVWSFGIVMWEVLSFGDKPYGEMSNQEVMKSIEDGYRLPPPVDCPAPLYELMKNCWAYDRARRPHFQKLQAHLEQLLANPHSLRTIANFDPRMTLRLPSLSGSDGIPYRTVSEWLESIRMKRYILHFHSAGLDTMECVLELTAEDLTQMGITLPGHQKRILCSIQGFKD
Chain of Homeodomain-interacting protein kinase 4 (Homo sapiens) (Q8NE63 whole entry): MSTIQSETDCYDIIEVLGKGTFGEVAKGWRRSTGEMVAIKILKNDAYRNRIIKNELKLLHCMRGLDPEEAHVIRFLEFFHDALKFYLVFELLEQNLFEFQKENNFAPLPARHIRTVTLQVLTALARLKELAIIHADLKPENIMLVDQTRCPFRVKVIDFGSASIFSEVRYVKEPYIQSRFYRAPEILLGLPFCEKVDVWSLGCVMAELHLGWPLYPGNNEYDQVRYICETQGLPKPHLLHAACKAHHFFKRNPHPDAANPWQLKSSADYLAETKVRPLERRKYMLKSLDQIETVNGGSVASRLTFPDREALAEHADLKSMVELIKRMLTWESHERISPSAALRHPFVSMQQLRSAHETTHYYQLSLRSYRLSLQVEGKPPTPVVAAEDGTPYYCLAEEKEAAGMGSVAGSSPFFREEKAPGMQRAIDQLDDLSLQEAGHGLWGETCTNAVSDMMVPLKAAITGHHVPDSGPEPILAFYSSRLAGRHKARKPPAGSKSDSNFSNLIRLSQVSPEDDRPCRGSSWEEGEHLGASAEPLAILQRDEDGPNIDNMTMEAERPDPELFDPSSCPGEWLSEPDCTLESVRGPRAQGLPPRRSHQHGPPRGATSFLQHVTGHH
Chain of Activated CDC42 kinase 1 (Homo sapiens) (Q07912 whole entry, looked up): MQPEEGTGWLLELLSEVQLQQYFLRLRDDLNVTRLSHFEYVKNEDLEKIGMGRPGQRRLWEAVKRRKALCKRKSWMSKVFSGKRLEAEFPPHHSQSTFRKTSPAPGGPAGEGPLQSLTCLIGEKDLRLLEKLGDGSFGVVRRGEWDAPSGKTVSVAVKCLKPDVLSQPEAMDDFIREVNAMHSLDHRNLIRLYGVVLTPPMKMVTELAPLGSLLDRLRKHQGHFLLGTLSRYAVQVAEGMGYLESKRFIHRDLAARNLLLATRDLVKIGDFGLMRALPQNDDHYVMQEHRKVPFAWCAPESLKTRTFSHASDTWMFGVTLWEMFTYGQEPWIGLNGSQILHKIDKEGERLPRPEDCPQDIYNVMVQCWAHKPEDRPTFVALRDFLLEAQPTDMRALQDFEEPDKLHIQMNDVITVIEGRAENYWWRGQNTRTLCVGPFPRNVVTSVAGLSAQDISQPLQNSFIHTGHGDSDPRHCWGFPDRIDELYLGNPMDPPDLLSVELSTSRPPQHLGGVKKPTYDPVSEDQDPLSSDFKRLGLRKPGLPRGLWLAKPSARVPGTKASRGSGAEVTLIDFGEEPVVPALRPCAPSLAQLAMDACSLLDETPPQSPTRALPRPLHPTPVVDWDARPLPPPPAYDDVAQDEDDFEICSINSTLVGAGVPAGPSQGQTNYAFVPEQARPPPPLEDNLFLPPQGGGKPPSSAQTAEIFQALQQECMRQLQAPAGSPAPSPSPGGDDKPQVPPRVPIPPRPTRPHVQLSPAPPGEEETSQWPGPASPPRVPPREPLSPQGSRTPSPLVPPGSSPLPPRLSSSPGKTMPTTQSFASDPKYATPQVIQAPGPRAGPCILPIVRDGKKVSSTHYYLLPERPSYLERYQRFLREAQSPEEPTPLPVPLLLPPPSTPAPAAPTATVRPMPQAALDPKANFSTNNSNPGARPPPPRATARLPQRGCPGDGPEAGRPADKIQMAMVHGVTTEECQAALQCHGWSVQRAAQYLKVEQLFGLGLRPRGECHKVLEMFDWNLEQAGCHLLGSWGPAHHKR
Chain of Focal adhesion kinase 1 (Homo sapiens) (Q05397 2-1052 limits assumed): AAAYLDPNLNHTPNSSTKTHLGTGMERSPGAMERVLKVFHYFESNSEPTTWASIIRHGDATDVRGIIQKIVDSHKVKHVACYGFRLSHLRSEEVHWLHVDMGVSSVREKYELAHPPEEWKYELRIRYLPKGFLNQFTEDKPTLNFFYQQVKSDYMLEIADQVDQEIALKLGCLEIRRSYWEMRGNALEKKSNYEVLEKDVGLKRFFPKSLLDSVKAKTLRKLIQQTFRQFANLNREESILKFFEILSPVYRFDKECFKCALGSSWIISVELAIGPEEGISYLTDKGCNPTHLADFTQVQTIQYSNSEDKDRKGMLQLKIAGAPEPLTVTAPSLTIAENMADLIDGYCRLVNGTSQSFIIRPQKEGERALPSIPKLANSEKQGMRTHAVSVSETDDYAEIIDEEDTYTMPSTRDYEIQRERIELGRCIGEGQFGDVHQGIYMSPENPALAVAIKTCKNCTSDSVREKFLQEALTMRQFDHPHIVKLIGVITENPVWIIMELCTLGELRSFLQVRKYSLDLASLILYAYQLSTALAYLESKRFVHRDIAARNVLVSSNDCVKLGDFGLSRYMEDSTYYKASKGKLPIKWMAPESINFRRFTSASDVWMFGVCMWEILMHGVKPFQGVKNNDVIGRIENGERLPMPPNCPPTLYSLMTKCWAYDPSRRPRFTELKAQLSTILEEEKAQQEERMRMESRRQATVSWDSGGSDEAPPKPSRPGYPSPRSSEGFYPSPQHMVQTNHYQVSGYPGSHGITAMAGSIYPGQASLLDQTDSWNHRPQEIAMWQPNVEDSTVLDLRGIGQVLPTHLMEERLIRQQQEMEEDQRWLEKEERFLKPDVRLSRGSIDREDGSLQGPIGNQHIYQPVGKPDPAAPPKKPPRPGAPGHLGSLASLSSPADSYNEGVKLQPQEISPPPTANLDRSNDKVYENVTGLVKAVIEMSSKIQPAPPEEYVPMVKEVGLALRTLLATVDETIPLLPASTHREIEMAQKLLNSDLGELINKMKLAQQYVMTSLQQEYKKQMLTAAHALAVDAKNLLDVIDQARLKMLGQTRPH
Chain of Serine/threonine-protein kinase OSR1 (Homo sapiens) (O95747 2-527 limits assumed): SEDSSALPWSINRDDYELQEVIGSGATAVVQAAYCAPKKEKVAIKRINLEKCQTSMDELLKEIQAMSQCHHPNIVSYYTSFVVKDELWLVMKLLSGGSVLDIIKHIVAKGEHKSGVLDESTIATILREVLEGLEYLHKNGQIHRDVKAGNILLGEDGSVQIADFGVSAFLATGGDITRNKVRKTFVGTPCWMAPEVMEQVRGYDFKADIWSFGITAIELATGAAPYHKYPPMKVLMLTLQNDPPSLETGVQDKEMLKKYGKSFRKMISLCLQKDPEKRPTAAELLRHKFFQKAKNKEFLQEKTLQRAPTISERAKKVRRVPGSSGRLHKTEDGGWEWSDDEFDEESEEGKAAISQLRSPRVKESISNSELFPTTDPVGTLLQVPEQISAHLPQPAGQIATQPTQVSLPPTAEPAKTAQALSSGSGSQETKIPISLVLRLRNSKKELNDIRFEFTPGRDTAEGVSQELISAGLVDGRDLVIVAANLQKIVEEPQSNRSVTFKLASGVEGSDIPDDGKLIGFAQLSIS

In the case of `CC1=C(C#N)C(c2ccc3[nH]nc(C)c3c2)C(C#N)=C(C)N1` [BAY-474], in series [1], the IC50 (usually the concentration at which inhibition is half-maximal) is 2.9 nM (active). The concentration for an effect of 90% (IC90) – broadly, the concentration needed for an effect of 90% – in the series with Hs746T is 56 nM (active). The inhibition – broadly, the drop in the measured response relative to a control, in per cent – in series [2] is -1%; in [3], 19%; in series [4], -5%; in [5], 0%; in series [6] it was 69%; in series [7], -4%. Also, the inhibition in series [8] is 1%; in series [9], -10%; in [10] it was 11%; in series [11], -3%; in series [13], 18.1%; in series [14], 8.26%. Moreover, the inhibition in series [15] was 15.6%. Besides, the inhibition at 3 h, 10 µM in [12] is on record as -9% (not active).

Turning to `CC1=C(C#N)[C@@H](c2ccc3[nH]nc(C)c3c2)C(C#N)=C(c2ccc(Cl)cc2)N1` [BAY-827], the residual activity is 100% in series [16]; 100% in [17]; 84.5% in [18]; 93.6% in series [19]; 100% in series [20]; 100% in series [21]. In addition, the residual activity in series [22] is 100%; in [23], 88.1%; in series [24] it was 81.4%; in [25] it was 89.5%; in series [26], 100%; in [27], 100%. The residual activity in series [28] was 100%; in series [29], 100%; in series [30] it was 90.4%; in series [31] it was 70.2%; in series [32], 92.3%; in series [33], 100%. For the same molecule, the residual activity in series [34] was 99.8%; in series [35], 100%; in [36], 81.5%; in series [37] it was 74.6%; in series [38], 100%; in [39], 92%. The residual activity in [40] is 91.2%; in series [41], 100%; in series [42], 100%; in [43], 88.3%; in series [44] it was 100%.
